Reference: the SangsterLogP compilation

Legend:
[1] = method code SF-GLC, from DOI: 10.1021/es60128a001
[2] = not given; remark: listed apart in the source
[3] = method code SF-MB, from DOI: 10.1016/0378-5173(83)90017-0; details: pH 3.5
[4] = method code SF-HPLC, from DOI: 10.1023/a:1015968113838, PMID: 3247280; details: pH 7.4
[5] = method code SF-RC, from Bracha, P.; O'Brien, D. (1966). The relation between physical properties and uptake of insecticides by eggs of the large milkweed bug. J Econ Entomol, 59(5)1255-1264.
[6] = method code SF-RC, from DOI: 10.1016/j.nucmedbio.2011.12.002, PMID: 22321533
[7] = not given; remark: listed apart in the source
[8] = method code SF-AS, from DOI: 10.1021/jm00384a018, PMID: 3806586
[9] = not given; remark: listed apart in the source
[10] = not given; remark: listed apart in the source
[11] = not given; remark: listed apart in the source
[12] = not given; remark: listed apart in the source
[13] = method code SF-AS, from Kofitsekpo, W. (1980). An experimental evaluation of the log P of oxamniquine - a new schistosomicide. Drugs under experimental and clinical research, 6(5)421-426.
[14] = not given; remark: listed apart in the source
[15] = not given; remark: listed apart in the source
[16] = method code SF, from PMID: 2161451; details: pH 7.4
[17] = method code SF-AS, from DOI: 10.3109/00498258909043190, PMID: 2618089; details: pH 10.8
[18] = method code SF-AS, from Pogodaeva, N.; Medvedeva, S. (2005). Hydrophobic properties of a number of monosubstituted flavone and flavanone derivatives. Russian Journal of Physical Chemistry A, 79(4)645-648.
[19] = method code SF, from DOI: 10.1016/0378-5173(91)90120-d
[20] = method code SF-RC, from DOI: 10.1016/j.bmc.2013.04.077, PMID: 23712084; details: pH 7.4
[21] = not given; remark: listed apart in the source
[22] = method code SF-AS, from DOI: 10.1128/aac.27.1.84, PMID: 2580479
[23] = method code SF-AS, from Lippold, B.; Lichey, J. (1984). Transport of drugs through lipophilic polymer membranes. II. Influence of the partition and diffusion coefficients. Acta pharmaceutica technologica, 30(2)140-154.
[24] = method code SF-AS, from DOI: 10.1021/jf990946w, PMID: 10888534
[25] = not given; remark: listed apart in the source
[26] = not given; remark: listed apart in the source
[27] = method code SF-RC, from DOI: 10.1016/j.nucmedbio.2009.09.005, PMID: 20447558; details: pH 7.4
[28] = method code SF, from DOI: 10.1021/jm5017544, PMID: 25671691; details: pH 7.4
[29] = not given; remark: listed apart in the source
[30] = method code SF-HPLC, from DOI: 10.1248/cpb.32.1929; details: pH 7.2
[31] = method code SF-RC, from DOI: 10.1016/j.nucmedbio.2007.07.017, PMID: 17998101; details: pH 7.4
[32] = method code SF-HPLC, from DOI: 10.1002/ps.2780130506
[33] = not given; remark: listed apart in the source
[34] = not given; remark: listed apart in the source
[35] = not given; remark: listed apart in the source
[36] = not given; remark: listed apart in the source
[37] = not given; remark: listed apart in the source
[38] = method code SF-AS, from DOI: 10.1155/2011/965826, PMID: 22295208
[39] = method code SF-RC, from DOI: 10.1016/s0024-3205(01)01232-2; details: pH 7.4
[40] = method code SF, from DOI: 10.1023/a:1007583422634, PMID: 11028945; details: pH 7.4
[41] = not given; remark: listed apart in the source
[42] = method code SF-HPLC, from DOI: 10.1016/0378-5173(95)00102-o
[43] = method code SF-RC, from DOI: 10.1016/s0968-0896(99)00108-x, PMID: 10530922; details: pH 7.2
[44] = method code SF-HPLC, from PMID: 18557421; details: pH 1.0
[45] = method code SF-RC, from DOI: 10.1016/s0969-8051(02)00326-8, PMID: 12234587; details: pH 7.4
[46] = not given; remark: listed apart in the source
[47] = method code SF-RC, from DOI: 10.1016/j.nucmedbio.2010.09.012, PMID: 21492779; details: pH 7.4
[48] = method code SF-SF, from DOI: 10.1016/j.ejps.2010.09.003, PMID: 20854904; details: pH 10.0

Q: For `CC(C)(c1cc(Br)c(O)c(Br)c1)c1cc(Br)c(O)c(Br)c1`, which logP is on record?
A: 5.2

Q: Which logP [1] does the source give for `CCOP(=S)(OCC)SC(CCl)N1C(=O)c2ccccc2C1=O` (centres undefined) here?
A: 4.69

Q: For `CCCOC(=O)c1ccccc1C(=O)OCCC`, which logP [2] is on record?
A: 4.05

Q: Which logD [3] does the source give for `CCCCCC(=O)N[C@@H]1C(=O)N2[C@@H]1SC(C)(C)[C@@H]2C(=O)O` here?
A: 2.37

Q: Which logD [4] does the source give for `CC(C)(C)C(=O)OCC1OC(n2cc(I)c(=O)[nH]c2=O)CC1O` (centres undefined) here?
A: 1.34

Q: With `CNC(=O)Oc1cc(C(C)C)cc(C(C)C)c1` as the compound, how does the logP [5] read?
A: 3.55

Q: Which logP [6] does the source give for `Cc1cn(C2CC(O)C(CO)O2)c(=O)n(Cc2cn(CCF)nn2)c1=O` (centres undefined) here?
A: -1.22

Q: For `CCN(CC)CCNC(=O)c1cc(Br)c(N)cc1OC`, which logP [7] is on record?
A: 2.62

Q: For `CC(O)C1=CCN(NC(=O)c2ccccc2)CC1` (centres undefined), which logP [8] is on record?
A: 0.04

Q: With `O=C1c2ccccc2C(=O)C1c1ccccc1` as the compound, how does the logP [9] read?
A: 2.5

Q: Which logP [10] does the source give for `Cc1c(-c2ccc(OCCCc3c[nH]cn3)cc2)no[n+]1[O-]` here?
A: 2.4

Q: With `Cc1ccc2ccc3ccccc3c2c1` as the compound, how does the logP [11] read?
A: 5.15

Q: Which logP [12] does the source give for `CC1CCCC(C)N1NC(=O)c1ccc(Cl)c(S(N)(=O)=O)c1` (centres undefined) here?
A: 1.18

Q: For `CC(C)NCC1CCc2cc(CO)c([N+](=O)[O-])cc2N1` (centres undefined), which logP [13] is on record?
A: 2.24

Q: Which logP [14] does the source give for `CC(C)(C)C(O)[C@H](Cc1ccc(Cl)cc1)n1cncn1` (stereo in doubt) here?
A: 3.26

Q: With `COc1cc(Cc2cnc(N)nc2N)c(I)c(OC)c1OC` as the compound, how does the logP [15] read?
A: 1.79

Q: For `CCOC(=O)c1ncn2c1CN(C)C(=O)c1c(I)cccc1-2`, which logD [16] is on record?
A: 1.48

Q: Which logD [17] does the source give for `O=C(Cn1c(=O)sc2ccc(Cl)cc21)N1CCN(CCO)CC1` here?
A: 1.04

Q: Which logP [18] does the source give for `O=C1c2ccccc2OC(c2ccccc2)C1O` (centres undefined) here?
A: 2.57

Q: With `Cc1cccc(Nc2ccccc2C(=O)O)c1C` as the compound, how does the logP [19] read?
A: 4.38

Q: Which logD [20] does the source give for `O=C(NCCCCCF)Oc1cccc(C2=NCCO2)c1` here?
A: 2.33

Q: For `O=c1c(O)c(-c2ccc(O)c(O)c2)oc2cc(O)cc(O)c12`, which logP [21] is on record?
A: 2.13

Q: For `CO[C@@]1(NC(=O)CSCC#N)C(=O)N2C(C(=O)O)=C(CSc3nnnn3C)CS[C@@H]21`, which logP [22] is on record?
A: -0.6

Q: Which logP [23] does the source give for `Cc1ccc(Cl)c(OCC(O)CNC(C)(C)C)c1` (centres undefined) here?
A: 2.8

Q: Which logP [24] does the source give for `O=c1c(O)c(-c2cc(O)c(O)c(O)c2)oc2cc(O)cc(O)c12` here?
A: 0.72

Q: For `CC(C)(C)C(=O)CC(C(O)C(C)(C)C)n1cncn1` (centres undefined), which logP [25] is on record?
A: 1.95

Q: For `CC(C(=O)O)c1ccc2c(c1)[nH]c1ccc(Cl)cc12` (centres undefined), which logP [26] is on record?
A: 4.04

Q: Which logD [27] does the source give for `CC(C1CCCCC1)N(C)C(=O)c1ccc[nH]1` (centres undefined) here?
A: 1.48

Q: With `Nc1ccc(-c2ccc3ccccc3n2)cc1` as the compound, how does the logD [28] read?
A: 1.85

Q: For `CCCN(CCOc1c(Cl)cc(Cl)cc1Cl)C(=O)n1ccnc1`, which logP [29] is on record?
A: 4.1

Q: With `COC(COC(N)=O)C1=C(N2CC2)C(=O)C(C)=C(N2CC2)C1=O` (centres undefined) as the compound, how does the logD [30] read?
A: 0

Q: Which logD [31] does the source give for `FCCON=C1C=C(C#Cc2ccccn2)CCC1` here?
A: 2.1

Q: With `CNC(=O)ON=Cc1cccc(Oc2ccccc2)c1` as the compound, how does the logP [32] read?
A: 3.12

Q: With `COC(=O)C1(O)c2ccccc2-c2ccccc21` as the compound, how does the logP [33] read?
A: 1.67

Q: Which logP [34] does the source give for `COc1ccc2c(c1)OCC2NC(=O)CN1CCCC1` (centres undefined) here?
A: 1.92

Q: Which logP [35] does the source give for `COc1cccc(N2CCN(CCN(C)C)C2=O)c1` here?
A: 1.76

Q: With `Cc1c2ccccc2cc2ccccc12` as the compound, how does the logP [36] read?
A: 4.96

Q: Which logP [37] does the source give for `CCCCCCCCc1ccccc1` here?
A: 6.5

Q: With `CC(=O)OC[C@H]1O[C@@H](n2cnc(N)nc2=O)[C@H](OC(C)=O)[C@@H]1OC(C)=O` as the compound, how does the logP [38] read?
A: -0.61

Q: Which logD [39] does the source give for `CNc1ccc(-c2nc3ccc(C)cc3s2)cc1` here?
A: 3.36

Q: For `CCCCCOC(=O)[C@@H](N)Cc1ccc(O)c(O)c1`, which logD [40] is on record?
A: 1.5

Q: Which logP [41] does the source give for `COc1ccc(CN2CCNCC2)c(OC)c1OC` here?
A: 1.04

Q: For `CCCCCCCCOC(=O)c1cccnc1`, which logP [42] is on record?
A: 4.71

Q: Which logD [43] does the source give for `CSc1ccc(COCCCc2c[nH]cn2)cc1` here?
A: 1.88

Q: With `COc1c(O)cc2c(c1O)C1OC(CO)C(O)C(O)C1OC2=O` (centres undefined) as the compound, how does the logD [44] read?
A: -1.06

Q: For `CNc1ccc(-c2cc3cc(I)ccc3o2)cc1`, which logD [45] is on record?
A: 2.04

Q: Which logP [46] does the source give for `S=C(CCCCC1CCSS1)NCCN1CCOCC1` (centres undefined) here?
A: 2.9

Q: Which logD [47] does the source give for `CN(C)c1ccc(-c2nc3ccc(I)cc3[nH]2)cc1` here?
A: 2.8

Q: Which logD [48] does the source give for `CN1CCN(CCC(=O)c2ccccc2)CC1` here?
A: 1.12
